The results in this text go back to patent US20210395239A1 (Hoffmann-La Roche Inc., priority 2018, published 2021).

One data set has as its target T1, hTLR9 (Homo sapiens, UniProt Q9NR96).
T1 sequence (Q9NR96 26-1032): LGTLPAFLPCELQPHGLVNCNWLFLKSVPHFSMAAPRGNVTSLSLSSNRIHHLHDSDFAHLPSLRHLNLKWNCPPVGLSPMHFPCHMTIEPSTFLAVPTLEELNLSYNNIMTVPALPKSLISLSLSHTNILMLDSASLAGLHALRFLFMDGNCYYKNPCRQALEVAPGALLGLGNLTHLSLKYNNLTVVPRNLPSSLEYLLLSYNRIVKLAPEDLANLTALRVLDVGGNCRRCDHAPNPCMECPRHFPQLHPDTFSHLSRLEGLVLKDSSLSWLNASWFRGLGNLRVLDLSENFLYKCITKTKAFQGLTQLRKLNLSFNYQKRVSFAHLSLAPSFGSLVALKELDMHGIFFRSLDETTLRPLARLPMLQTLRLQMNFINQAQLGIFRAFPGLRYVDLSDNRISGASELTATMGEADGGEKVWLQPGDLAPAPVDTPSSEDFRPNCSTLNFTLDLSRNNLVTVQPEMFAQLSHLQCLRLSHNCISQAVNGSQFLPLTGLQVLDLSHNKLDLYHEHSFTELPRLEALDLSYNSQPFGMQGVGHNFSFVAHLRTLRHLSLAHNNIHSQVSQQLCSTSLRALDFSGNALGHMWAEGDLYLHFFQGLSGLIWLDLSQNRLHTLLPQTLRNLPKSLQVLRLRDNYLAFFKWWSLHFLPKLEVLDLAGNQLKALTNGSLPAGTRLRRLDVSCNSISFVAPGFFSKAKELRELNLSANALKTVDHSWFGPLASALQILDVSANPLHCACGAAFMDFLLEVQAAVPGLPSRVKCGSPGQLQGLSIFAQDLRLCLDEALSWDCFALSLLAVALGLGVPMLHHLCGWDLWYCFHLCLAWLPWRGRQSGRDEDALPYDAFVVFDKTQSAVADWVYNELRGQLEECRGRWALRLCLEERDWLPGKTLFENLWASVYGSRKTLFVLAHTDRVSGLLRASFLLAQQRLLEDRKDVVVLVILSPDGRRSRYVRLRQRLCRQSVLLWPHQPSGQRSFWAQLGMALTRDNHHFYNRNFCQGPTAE
In words: HEK293-Blue-hTLR-9 cells assay (SEAP reporter, ODN2006 stimulation). The data set is classed as cell-based. Particulars: HEK293-Blue-hTLR9 cells, ODN2006, 20 hrs; read-out: HEK/hTLR9 IC50. Further details: host or cells: HEK293 (HEK-Blue hTLR9). A digest of the protocol: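 HEK293-Blue-hTLR9 cells with NF-κB/AP-1-driven SEAP reporter treated with serially diluted compound (1% DMSO final) plus ODN2006 for 20 h at 37 °C. Supernatant SEAP measured with QUANTI-Blue, 2 h at 37 °C, absorbance 620–655 nm; antagonism seen as reduced reporter signal.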

Another data set concerns the target T2, CYP3A4 (Homo sapiens, UniProt P08684).
T2 construct: tissue BD-Gentest 452117; host or cells: human liver microsomes
The experiment in a line: CYP inhibition assay in human liver microsome, CYP3A4. Type of data set: in vitro ADME. Particulars: human, human liver microsomes, probe midazolam 5 μM, substrate midazolam 5 μM, third value of 2C9/2D6/3A4. The method, then:
This is a high throughput screening assay used for assessment of reversible inhibition of CYP2C9, CYP2D6, and CYP3A4 activity of test compounds in human liver microsome (HLM) in early discovery stage.
10 mM DMSO stock solutions of test compounds were diluted in DMSO to generate 2 mM intermediate stock solution. 250 nL, of intermediate stock solution were transferred in duplicate into 3 separate 384 well microtitre plates (assay-ready plates). A mixture of HLM and each substrate was made up. 45 μL of HLM substrate mix was then transferred to each well of an assay ready plate and mixed. The negative (solvent) and positive controls (standard inhibitor for each CYP) were included in each assay ready plate. The assay ready plate was warmed to 37° C. in an incubator over 10 minutes. 5 μL pre-warmed NADPH regenerating system was added to each incubation well to start the reaction. Final incubation volume was 50 μL. The assay plate then was placed back in the 37° C. incubator. After incubation (10 minutes for CYP2D6) for 5 minutes, incubates were quenched by addition of 50 μL 100% acetonitrile containing internal standards (400 ng/mL 13C6-4′-OH-Diclofenac, 20 ng/mL D3-Dextrorphan and 20 ng/mL D4-1′OH-Midazolam). The supernatants were collected for RapidFire/MS/MS analysis.
RapidFire online solid phase extraction/sample injection system (Agilent) coupled with API4000 triple quadrupole mass spectrometer (AB Sciex) were used for sample analysis. The mobile phase composed of acetonitrile and water supplemented with 0.1% formic acid. A C4 solid phase extraction cartridge is used for sample separation. MS detection is achieved in positive ion MRM mode.
Peak areas for substrate, metabolite and internal standard are determined using the RapidFire integrator software (version 3.6.12009.12296). Peak area ratios (PAR) of metabolite and internal standard (stable-labelled metabolite) are then calculated. The measurement window for each experiment is then defined:
PAR (0% activity)=average PAR for all incubations containing concentrated inhibitor; Par (100% activity)=average PAR for all incubations containing no inhibitor (DMSO controls); % Activity (test inhibitor)=[PAR (test inhibitor)−PAR (0% activity)]/[PAR (100% activity)−PAR (0% activity)]; % Inhibition (test inhibitor)=100-% Activity (test inhibitor).
A general note: Microsomes from liver hold many membrane-bound enzymes, among them those of drug oxidation.

By inhibition is commonly meant the change of the read-out against control, counted positive when it falls.

T2 sequence (P08684 whole entry): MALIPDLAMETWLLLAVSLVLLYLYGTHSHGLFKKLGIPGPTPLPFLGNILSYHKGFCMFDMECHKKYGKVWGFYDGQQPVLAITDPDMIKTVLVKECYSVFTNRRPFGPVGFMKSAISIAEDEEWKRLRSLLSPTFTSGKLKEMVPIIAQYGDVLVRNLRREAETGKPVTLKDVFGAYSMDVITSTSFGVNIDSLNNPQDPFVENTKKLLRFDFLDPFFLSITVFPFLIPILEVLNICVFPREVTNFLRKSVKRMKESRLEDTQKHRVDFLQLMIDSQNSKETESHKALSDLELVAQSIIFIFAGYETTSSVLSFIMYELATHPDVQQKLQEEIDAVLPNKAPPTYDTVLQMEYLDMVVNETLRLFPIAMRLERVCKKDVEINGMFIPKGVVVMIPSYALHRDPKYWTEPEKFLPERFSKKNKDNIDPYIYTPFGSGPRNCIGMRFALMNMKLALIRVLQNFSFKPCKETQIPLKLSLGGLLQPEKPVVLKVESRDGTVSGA

Consider `C[C@@H]1CN(c2ccc(C#N)c3ncccc23)C[C@H](CN2CCC(c3cccc(N4CCNCC4)c3)C2)O1` (stereo partly drawn) [Example 1, 5-[(2R,6S)-2-methyl-6-[[3-(3-piperazin-1-ylphenyl)pyrrolidin-1-yl]methyl]morpholin-4-yl]quinoline-8-carbonitrile], for which, at hTLR9, the IC50 was 136 nM. Moreover, the inhibition at 5 min, 10 µM against CYP3A4 was determined as 14%.

`C[C@@H]1CN(c2ccc(C#N)c3ncccc23)C[C@H](CN2CCC(c3cccc(C4CCNCC4)c3)CC2)O1` [Example 2, 5-[(2R,6S)-2-methyl-6-[[4-[3-(4-piperidyl)phenyl]-1-piperidyl]methyl]morpholin-4-yl]quinoline-8-carbonitrile]: at hTLR9, the IC50 was determined as 74 nM. Also, the inhibition at 5 min, 10 µM on CYP3A4 was 18%.

Consider `C[C@@H]1CN(c2ccc(C#N)c3ncccc23)C[C@H](CN2CC(c3ccc(N4CCNCC4)cc3)C2)O1` [Example 3, 5-[(2R,6S)-2-methyl-6-[[3-(4-piperazin-1-ylphenyl)azetidin-1-yl]methyl]morpholin-4-yl]quinoline-8-carbonitrile], for which the IC50 on hTLR9 was 52 nM. In addition, the inhibition at 5 min, 10 µM at CYP3A4 was determined as 4.5%.

In the case of `C[C@@H]1CN(c2ccc(C#N)c3ncccc23)C[C@H](CN2CC(c3cccc(N4CCNCC4)c3)C2)O1` [Example 4, 5-[(2R,6S)-2-methyl-6-[[3-(3-piperazin-1-ylphenyl)azetidin-1-yl]methyl]morpholin-4-yl]quinoline-8-carbonitrile], the IC50 on hTLR9 was found to be 68 nM. The inhibition at 5 min, 10 µM on CYP3A4 came out at 0.5%.

For `CO[C@H]1CN(c2cc(C)nc(N3CCN(C[C@H]4CN(c5ccc(C#N)c6nccnc56)C[C@@H](C)O4)CC3)n2)C[C@@H]1N` [Example 104, 8-[(2S,6R)-2-[[4-[4-[(3S,4S)-3-amino-4-methoxy-pyrrolidin-1-yl]-6-methyl-pyrimidin-2-yl]piperazin-1-yl]methyl]-6-methyl-morpholin-4-yl]quinoxaline-5-carbonitrile], at hTLR9, the IC50 was 70 nM. Moreover, the inhibition at 5 min, 10 µM against CYP3A4 is -12%.

As to `CO[C@H]1CN(c2nc(C)cc(N3CCN(C[C@H]4CN(c5ccc(C#N)c6nccnc56)C[C@@H](C)O4)CC3)n2)C[C@@H]1N` [Example 106, 8-[(2S,6R)-2-[[4-[2-[(3S,4S)-3-amino-4-methoxy-pyrrolidin-1-yl]-6-methyl-pyrimidin-4-yl]piperazin-1-yl]methyl]-6-methyl-morpholin-4-yl]quinoxaline-5-carbonitrile], the IC50 on hTLR9 is 46 nM. In addition, the inhibition at 5 min, 10 µM against CYP3A4 turned out to be 20.5%.

On to `C[C@@H]1CN(c2ccc(C#N)c3nccnc23)C[C@H](CN2CCN(c3ccnc(N4C[C@H](N)[C@@H](F)C4)n3)CC2)O1` [Example 107, 8-[(2S,6R)-2-[[4-[2-[(3S,4S)-3-amino-4-fluoro-pyrrolidin-1-yl]pyrimidin-4-yl]piperazin-1-yl]methyl]-6-methyl-morpholin-4-yl]quinoxaline-5-carbonitrile], for which the IC50 on hTLR9 came to 80 nM. The inhibition at 5 min, 10 µM against CYP3A4 was found to be 34.5%.

On to `C[C@@H]1CN(c2ccc(C#N)c3ncccc23)C[C@H](CN2CCN(c3ccnc(N4C[C@H](N)[C@@H](F)C4)n3)CC2)O1` [Example 110, 5-[(2S,6R)-2-[[4-[2-[(3S,4S)-3-amino-4-fluoro-pyrrolidin-1-yl]pyrimidin-4-yl]piperazin-1-yl]methyl]-6-methyl-morpholin-4-yl]quinoline-8-carbonitrile], for which, at hTLR9, the IC50 worked out at 68 nM. The inhibition at 5 min, 10 µM against CYP3A4 was found to be 44%.

`Cc1cc(N2CCN(C[C@H]3CN(c4ccc(C#N)c5nccnc45)C[C@@H](C)O3)CC2)nc(N2CC(N)C2)n1` [Example 112, 8-[(2S,6R)-2-[[4-[2-(3-aminoazetidin-1-yl)-6-methyl-pyrimidin-4-yl]piperazin-1-yl]methyl]-6-methyl-morpholin-4-yl]quinoxaline-5-carbonitrile]: the IC50 on hTLR9 came out at 65 nM. Besides, on CYP3A4, the inhibition at 5 min, 10 µM was -5%.

For `Cc1cc(N2CCNCC2)nc(N2CCN(C[C@H]3CN(c4ccc(C#N)c5nccnc45)C[C@@H](C)O3)CC2)n1` [Example 114, 8-[(2R,6S)-2-methyl-6-[[4-(4-methyl-6-piperazin-1-yl-pyrimidin-2-yl)piperazin-1-yl]methyl]morpholin-4-yl]quinoxaline-5-carbonitrile], on hTLR9, the IC50 was 62 nM. Also, at CYP3A4, the inhibition at 5 min, 10 µM was determined as 16%.

As for `Cc1ccc(N2C[C@H](CN3CCN(c4nccc(N5CCNCC5)n4)CC3)O[C@H](C)C2)c2nccnc12` [Example 116, (2R,6S)-2-methyl-4-(8-methylquinoxalin-5-yl)-6-[[4-(4-piperazin-1-ylpyrimidin-2-yl)piperazin-1-yl]methyl]morpholine], at hTLR9, the IC50 came out at 89 nM. Also, the inhibition at 5 min, 10 µM on CYP3A4 is 8%.

With `Cc1ccc(N2C[C@H](CN3CCN(c4ccnc(N5CCNCC5)n4)CC3)O[C@H](C)C2)c2nccnc12` [Example 117, (2R,6S)-2-methyl-4-(8-methylquinoxalin-5-yl)-6-[[4-(2-piperazin-1-ylpyrimidin-4-yl)piperazin-1-yl]methyl]morpholine], the IC50 on hTLR9 was found to be 109 nM. For the same compound, the inhibition at 5 min, 10 µM against CYP3A4 was found to be 10%.

In the case of `C[C@@H]1CN(c2ccc(C#N)c3nccnc23)C[C@H](CN2CCN(c3nccc(N4C[C@@H](N)[C@H](F)C4)n3)CC2)O1` [Example 119, 8-[(2S,6R)-2-[[4-[4-[(3R,4R)-3-amino-4-fluoro-pyrrolidin-1-yl]pyrimidin-2-yl]piperazin-1-yl]methyl]-6-methyl-morpholin-4-yl]quinoxaline-5-carbonitrile], on hTLR9, the IC50 is 94 nM. At CYP3A4, the inhibition at 5 min, 10 µM turned out to be 23.5%.

For `[2H]c1nc2c(C#N)ccc(N3C[C@H](CN4CCN(c5nc(C)cc(N6CC(N)C6)n5)CC4)O[C@H](C)C3)c2nc1[2H]` [Example 124, 8-[(2S,6R)-2-[[4-[4-(3-aminoazetidin-1-yl)-6-methyl-pyrimidin-2-yl]piperazin-1-yl]methyl]-6-methyl-morpholin-4-yl]-2,3-dideuterio-quinoxaline-5-carbonitrile], the IC50 at hTLR9 was 31 nM. At CYP3A4, the inhibition at 5 min, 10 µM was 16%.

`[2H]c1ccc2c(N3C[C@H](CN4CCN(c5ccc(N6CC7(CN(C)C7)C6)nc5)CC4)O[C@H](C)C3)ccc(C#N)c2n1` [Example 161, 2-deuterio-5-[(2R,6S)-2-methyl-6-[[4-[6-(6-methyl-2,6-diazaspiro[3.3]heptan-2-yl)-3-pyridyl]piperazin-1-yl]methyl]morpholin-4-yl]quinoline-8-carbonitrile]: the IC50 on hTLR9 worked out at 59 nM.
